The test system of this assay is 171881-019-R-J1-PDC complex spheroid viability. Put plainly: Anticancer human tumor 171881-019-R-J1-PDC patient-derived invasive breast carcinoma cell line growth inhibition. Conditions: for viability, T/C: stronger effect = lower value. In short, it runs like this:
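Drug combinations with the LSD1 inhibitor iadademstat tested on tumor cells co-cultured as spheroids with endothelial cells and mesenchymal stem cells. Concentrations descended in half-log increments from clinical Cmax or 10 microM.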

The mark [1] stands for this setting: curve of first compound, second compound 0.1 µM.
The mark [2] stands for this setting: curve of first compound, second compound 0.316 µM.
The mark [3] stands for this setting: curve of first compound, second compound 1 µM.
Setting [4] is: curve of first compound, second compound 3.16 µM.
Where [5] appears, read: curve of first compound, second compound 10 µM.
Where [6] appears, read: second compound 0.1 µM, first compound 0.0316 µM.
Where [7] appears, read: second compound 0.1 µM, first compound 0.1 µM.
Where [8] appears, read: second compound 0.1 µM, first compound 0.316 µM.
[9] abbreviates: second compound 0.1 µM, first compound 1 µM.
Setting [10] is: second compound 0.316 µM, first compound 0.0316 µM.
Setting [11] is: second compound 0.316 µM, first compound 0.1 µM.
Where [12] appears, read: second compound 0.316 µM, first compound 0.316 µM.
Where [13] appears, read: second compound 0.316 µM, first compound 1 µM.
Where [14] appears, read: second compound 1 µM, first compound 0.0316 µM.
[15] abbreviates: second compound 1 µM, first compound 0.1 µM.
Setting [16] is: second compound 1 µM, first compound 0.316 µM.
[17] abbreviates: second compound 1 µM, first compound 1 µM.
[18] abbreviates: second compound 3.16 µM, first compound 0.0316 µM.
Where [19] appears, read: second compound 3.16 µM, first compound 0.1 µM.
Where [20] appears, read: second compound 3.16 µM, first compound 0.316 µM.
The mark [21] stands for this setting: second compound 3.16 µM, first compound 1 µM.
[22] abbreviates: second compound 10 µM, first compound 0.0316 µM.
Where [23] appears, read: second compound 10 µM, first compound 0.1 µM.
Setting [24] is: second compound 10 µM, first compound 0.316 µM.
Where [25] appears, read: second compound 10 µM, first compound 1 µM.

“And” between values parts separate entries of the source, which are not always exact repeats. Equal entries are not always repeated. Bounds are passed on as bounds.
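Further: spheroids exposed to agents for 7 days after 3 days growth.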

With `COc1ccc([C@@H](O)c2cc(-c3ncnc4cc(N5CCOCC5)ccc34)c(F)cc2Cl)nn1` + NC1CC1c1ccc(-c2cccc(O)c2)cc1, the IC50 (commonly the concentration at which inhibition is half-maximal) was 624 nM under setting [1]; 672 nM under setting [2]; 753 nM under setting [3]; 804 nM under setting [4]; 606 nM under setting [5]. The viability, T/C (in general, the ratio of treated to control) was 100% under setting [6]; 99.9% under setting [7]; 78.9% under setting [8]; 30.5% under setting [9]; 7.18% (second compound 0.1 µM, first compound 3.16 µM); 11% (second compound 0.1 µM, first compound 10 µM). Moreover, the viability, T/C is, setting by setting: under setting [10], 103%; under setting [11], 100%; under setting [12], 81.2%; under setting [13], 34.4%; (second compound 0.316 µM, first compound 3.16 µM) 8.07%; (second compound 0.316 µM, first compound 10 µM) 11%. The viability, T/C under setting [14] is 108%; the viability, T/C under setting [15] is 107%; the viability, T/C under setting [16] is 85.9%; the viability, T/C under setting [17] is 39.2%; the viability, T/C (second compound 1 µM, first compound 3.16 µM) is 8.76%; the viability, T/C (second compound 1 µM, first compound 10 µM) was 9.94%. The viability, T/C runs as follows: under setting [18], 104%; under setting [19], 106%; under setting [20], 92.1%; under setting [21], 40.8%; (second compound 3.16 µM, first compound 3.16 µM) 7.82%; (second compound 3.16 µM, first compound 10 µM) 10.7%. Moreover, the viability, T/C by setting is: under setting [22], 84.8%; under setting [23], 88.6%; under setting [24], 75.2%; under setting [25], 30.6%; (second compound 10 µM, first compound 3.16 µM) 8.18%; (second compound 10 µM, first compound 10 µM) 9.78%.

Take `CC(C)CC(NC(=O)CNC(=O)c1cc(Cl)ccc1Cl)B1OC(=O)CC(CC(=O)O)(C(=O)O)O1` (stereo not drawn): the viability, T/C is, setting by setting: (compound 0.000316 µM) 91.2% and 75.3%; (compound 0.001 µM) 105% and 52.1%; (compound 0.00316 µM) 48% and 33.7%; (compound 0.01 µM) 12.6% and 17.4%; (compound 0.0316 µM) 3.28% and 13.3%; (compound 0.1 µM) 0.97% and 15.7%. Also, the IC50 (curve of compound) is 3.02 nM and 1.19 nM.

Regarding `Nc1ccccc1NC(=O)c1ccc(CNC(=O)OCc2cccnc2)cc1` + NC1CCC(NC2CC2c2ccccc2)CC1, the IC50 turned out to be 263 nM under setting [1]; 252 nM under setting [2]; 277 nM under setting [3]; 288 nM under setting [4]; 325 nM under setting [5]. For the same molecule, the viability, T/C by setting is: (second compound 0.1 µM, first compound 0.00949 µM) 86.6%; (second compound 0.1 µM, first compound 0.03 µM) 85.5%; (second compound 0.1 µM, first compound 0.0949 µM) 117%; (second compound 0.1 µM, first compound 0.3 µM) 43.9%; (second compound 0.1 µM, first compound 0.949 µM) 2.1%; (second compound 0.1 µM, first compound 3 µM) 0.32%. In addition, the viability, T/C is, setting by setting: (second compound 0.316 µM, first compound 0.00949 µM) 89.2%; (second compound 0.316 µM, first compound 0.03 µM) 98.6%; (second compound 0.316 µM, first compound 0.0949 µM) 119%; (second compound 0.316 µM, first compound 0.3 µM) 40.8%; (second compound 0.316 µM, first compound 0.949 µM) 2.42%; (second compound 0.316 µM, first compound 3 µM) 0.34%. Besides, the viability, T/C reads like this: (second compound 1 µM, first compound 0.00949 µM) 91.3%; (second compound 1 µM, first compound 0.03 µM) 104%; (second compound 1 µM, first compound 0.0949 µM) 116%; (second compound 1 µM, first compound 0.3 µM) 46%; (second compound 1 µM, first compound 0.949 µM) 1.97%; (second compound 1 µM, first compound 3 µM) 0.29%. The viability, T/C by setting is: (second compound 3.16 µM, first compound 0.00949 µM) 87.8%; (second compound 3.16 µM, first compound 0.03 µM) 96%; (second compound 3.16 µM, first compound 0.0949 µM) 115%; (second compound 3.16 µM, first compound 0.3 µM) 48.1%; (second compound 3.16 µM, first compound 0.949 µM) 2.3%; (second compound 3.16 µM, first compound 3 µM) 0.22%. The viability, T/C (second compound 10 µM, first compound 0.00949 µM) was 92.5%; the viability, T/C (second compound 10 µM, first compound 0.03 µM) was 109%; the viability, T/C (second compound 10 µM, first compound 0.0949 µM) was 126%; the viability, T/C (second compound 10 µM, first compound 0.3 µM) was 53.6%; the viability, T/C (second compound 10 µM, first compound 0.949 µM) is 2.32%; the viability, T/C (second compound 10 µM, first compound 3 µM) was 0.27%.

Turning to `Nc1ccccc1NC(=O)c1ccc(CNC(=O)OCc2cccnc2)cc1`, the viability, T/C reads like this: (compound 0.00949 µM) 96.1% and 95.3%; (compound 0.03 µM) 102% and 98.5%; (compound 0.0949 µM) 135% and 108%; (compound 0.3 µM) 45.6% and 92.6%; (compound 0.949 µM) 2.72% and 9.58%; (compound 3 µM) 0.41% and 0.94%. In addition, the IC50 (curve of compound) is 278 nM and 542 nM.

With `COc1cc(Nc2ncc3c(n2)-c2ccc(Cl)cc2C(c2c(F)cccc2OC)=NC3)ccc1C(=O)O`, the viability, T/C (compound 0.00316 µM) is 91.6% and 57%; the viability, T/C (compound 0.01 µM) was 85.9% and 64.4%; the viability, T/C (compound 0.0316 µM) was 84.5% and 63.2%; the viability, T/C (compound 0.1 µM) was 89% and 58.9%; the viability, T/C (compound 0.316 µM) was 80.6% and 54.1%; the viability, T/C (compound 1 µM) was 51.5% and 30.1%. Besides, under “curve of compound”, the IC50 was > 1000 nM and 384 nM.

For `O=C(C=Cn1cnc(-c2cc(C(F)(F)F)cc(C(F)(F)F)c2)n1)NNc1cnccn1` + NC1CCC(NC2CC2c2ccccc2)CC1, the IC50 is, setting by setting: under setting [1], less than 3.16 nM; under setting [2], less than 3.16 nM; under setting [3], less than 3.16 nM; under setting [4], less than 3.16 nM; under setting [5], less than 3.16 nM. The viability, T/C reads like this: (second compound 0.1 µM, first compound 0.00316 µM) 20%; (second compound 0.1 µM, first compound 0.01 µM) 14.8%; under setting [6], 5.39%; under setting [7], 2.15%; under setting [8], 2.24%; under setting [9], 2.08%. The viability, T/C is, setting by setting: (second compound 0.316 µM, first compound 0.00316 µM) 20.9%; (second compound 0.316 µM, first compound 0.01 µM) 14.6%; under setting [10], 6.07%; under setting [11], 2.35%; under setting [12], 6.21%; under setting [13], 2.25%. For the same molecule, the viability, T/C is, setting by setting: (second compound 1 µM, first compound 0.00316 µM) 22.7%; (second compound 1 µM, first compound 0.01 µM) 16.1%; under setting [14], 6.8%; under setting [15], 2.59%; under setting [16], 2.63%; under setting [17], 4.14%. The viability, T/C (second compound 3.16 µM, first compound 0.00316 µM) is 24.3%; the viability, T/C (second compound 3.16 µM, first compound 0.01 µM) was 16.4%; the viability, T/C under setting [18] is 6.64%; the viability, T/C under setting [19] is 2.73%; the viability, T/C under setting [20] is 2.91%; the viability, T/C under setting [21] was 2.78%. Further, the viability, T/C (second compound 10 µM, first compound 0.00316 µM) is 24.7%; the viability, T/C (second compound 10 µM, first compound 0.01 µM) was 17.3%; the viability, T/C under setting [22] is 7.11%; the viability, T/C under setting [23] is 2.96%; the viability, T/C under setting [24] was 3.51%; the viability, T/C under setting [25] was 3.29%.

Turning to `CC1COCCN1c1cc(C2(S(C)(=N)=O)CC2)nc(-c2ccnc3[nH]ccc23)n1` (stereo not drawn), the viability, T/C is 94.6% and 94.9% (compound 0.0316 µM); 89.5% and 95.9% (compound 0.1 µM); 98.2% and 91.3% (compound 0.316 µM); 73% and 58.9% (compound 1 µM); 17.2% and 21.2% (compound 3.16 µM); 8.54% and 9.3% (compound 10 µM). Besides, the IC50 (curve of compound) is 1610 nM and 1330 nM.
